For 50 molecules, IC50 results are on record in US20230027198A1 (The Rockefeller University, priority 2019, published 2023).

For orientation: IC50 means the concentration at which inhibition is half-maximal. A lower IC50 goes with greater potency.

The structures appear in SMILES notation.

The target of this test is T1, ENL YEATS domain (6×HIS ENL YEATS Domain) binding to H3K9cr peptide (Homo sapiens, UniProt Q03111).
T1 construct: aa1-150; EpiCypher, 15-0069; purchased EpiCypher 15-0069
T1 sequence (Q03111 1-150): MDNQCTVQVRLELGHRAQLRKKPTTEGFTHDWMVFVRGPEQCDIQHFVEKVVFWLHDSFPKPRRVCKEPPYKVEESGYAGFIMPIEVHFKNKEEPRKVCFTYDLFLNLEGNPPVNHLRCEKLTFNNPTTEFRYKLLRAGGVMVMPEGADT
Nature of the test: TR-FRET ENL Screening Assay, FRET Assay Protocol 1. Conditions: H3K9cr peptide (aa1-20). As to the method:
Compounds of the invention were dissolved in DMSO at a concentration of 3 mM with subsequent dilutions in assay buffer (50 mM HEPES PH7.0, 150 mM NaCl, 0.05% BSA, 0.2% Pluronic F-127) such that the assay contained 1% DMSO. […] Low control (LC) wells received 5 uL of assay buffer instead of ENL protein. […] Compound concentration response curves were performed in duplicate over the concentration range of 0.15 nM-30 uM. The response at each compound concentration minus the LC value was converted to percent inhibition of the vehicle control group response (HC-LC). The relationship between the % inhibition and the compound concentration was analyzed using a four parameter logistic equation to estimate lower and upper asymptotes, the compound concentration producing 50% inhibition (IC50 value) and the slope at the mid-point location.
In turn, `Cc1noc2ccc(C(=O)Nc3cc4[nH]c(CN5CCC[C@@H]5C)cc4cn3)cc12` [Example 2, 3-methyl-N-(2-[[(2S)-2-methylpyrrolidin-1-yl]methyl]-1H-pyrrolo[3,2-c]pyridin-6-yl)-1,2-benzoxazole-5-carboxamide] yielded a concentration for half-maximal inhibition (IC50) of 465 nM. Consider `Cc1cnc(-c2ccc(C(=O)Nc3cc4[nH]c(CN5CCC[C@@H]5C)cc4cn3)c(F)c2)nc1` [Example 14, 2-fluoro-4-(5-methylpyrimidin-2-yl)-N-(2-[[(2S)-2-methylpyrrolidin-1-yl]methyl]-1H-pyrrolo[3,2-c]pyridin-6-yl)benzamide], for which the concentration for half-maximal inhibition (IC50) worked out at 1420 nM. For `C[C@H]1CCCN1Cc1cc2cnc(NC(=O)c3cc4cnccc4cn3)cc2[nH]1` [Example 78], the IC50 stood at 145 nM. The molecule `C[C@H]1CCCN1Cc1cc2cnc(NC(=O)c3ccc4c(c3)CCCN4C)cc2[nH]1` [Example 40, 1-methyl-N-(2-[[(2S)-2-methylpyrrolidin-1-yl]methyl]-1H-pyrrolo[3,2-c]pyridin-6-yl)-3,4-dihydro-2H-quinoline-6-carboxamide] gave an IC50 of 2520 nM. The molecule `C[C@H]1CCCN1Cc1cc2cnc(NC(=O)c3ccc(-c4cn(C)nn4)cc3F)cc2[nH]1` [Example 33] displayed an IC50 of 418 nM. Next, `C[C@H]1CCCN1Cc1cc2cnc(NC(=O)c3ccc4c(c3)OCC(=O)N4)cc2[nH]1` [Example 16, N-(2-[[(2S)-2-methylpyrrolidin-1-yl]methyl]-1H-pyrrolo[3,2-c]pyridin-6-yl)-3-oxo-2,4-dihydro-1,4-benzoxazine-7-carboxamide]: 1160 nM.

As to `C[C@H]1CCCN1Cc1cc2cnc(NC(=O)c3ccc4[nH]nnc4c3)cc2[nH]1` [Example 79], the IC50 is 511 nM. Turning to `C[C@H]1CCCN1Cc1cc2cnc(NC(=O)c3ccc4nc(N)ccc4c3)cc2[nH]1` [Example 58], the IC50 turned out to be 295 nM. `Cc1nn(C(F)F)c2ccc(C(=O)Nc3cc4[nH]c(CN5CCC[C@@H]5C)cc4cn3)cc12` [Example 102] gave a half-maximal inhibitory concentration (IC50) of 276 nM. Regarding `C[C@H]1CCCN1Cc1cc2cnc(NC(=O)c3nc4cc(N)ccc4[nH]3)cc2[nH]1` [Example 64], the IC50 amounted to 1350 nM. The molecule `C[C@H]1CCCN1Cc1cc2cnc(NC(=O)c3ccc4c(N)nn(C5CC5)c4c3)cc2[nH]1` [Example 84] displayed a half-maximal inhibitory concentration (IC50) of 177 nM. Next, `Cc1nn(C2COC2)c2ccc(C(=O)Nc3cc4[nH]c(CN5CCC[C@@H]5C)cc4cn3)cc12` [Example 100]: 214 nM; `Cc1n[nH]c2ccc(C(=O)Nc3cc4[nH]c(CN5CC6(C5)CC(F)(F)C6)cc4cn3)cc12` [Example 109]: 152 nM; `Cc1n[nH]c2cc(F)c(C(=O)Nc3cnc4cc(CN5CCC[C@@H]5C)[nH]c4c3)cc12` [Example 105, 6-fluoro-3-methyl-N-(2-[[(2S)-2-methylpyrrolidin-1-yl]methyl]-1H-pyrrolo[3,2-b]pyridin-6-yl)-1H-indazole-5-carboxamide]: 270 nM.

In turn, `CC(c1ccc(C(=O)Nc2cc3[nH]c(CN4CCC[C@@H]4C)cc3cn2)cc1)c1cccnc1` (some centres unmarked) [compound 30] displayed an IC50 of 763 nM.

Take `Cc1n[nH]c2ccc(C(=O)Nc3cnc4cc(CN5CCC[C@@H]5C)[nH]c4c3)c(F)c12` [compound 106]: the IC50 was found to be 170 nM. Consider `COCC1CCN(Cc2cc3cnc(NC(=O)c4ccc5c(cnn5C)c4)cc3[nH]2)C1` (centres unmarked) [Example 9], for which the half-inhibitory concentration (IC50) was determined as 283 nM. As for `C[C@H]1CCCN1Cc1cc2nnc(NC(=O)c3ccc4c(cnn4C)c3)cc2[nH]1` [compound 19], the IC50 was 200 nM.

`C[C@H]1CCCN1Cc1cc2cnc(NC(=O)c3ccc(-c4cnn(C5CC5)c4)cc3)cc2[nH]1` [Example 49] had a half-inhibitory concentration (IC50) of 151 nM. Next, `C[C@H]1CCCN1Cc1cc2cnc(NC(=O)c3ccc(C(=N)N)cc3)cc2[nH]1` [Example 80]: 1900 nM; `COCCCCn1ncc2cc(C(=O)Nc3cc4[nH]c(CN5CCC[C@@H]5C)cc4cn3)ccc21` [compound 28]: 416 nM; `C[C@H]1CCCN1Cc1cc2cnc(NC(=O)c3ccc4c(c3)CNC(=O)C4)cc2[nH]1` [Example 26]: 435 nM. `C[C@H]1CCCN1Cc1cc2cnc(NC(=O)c3ccc(CN)cc3)cc2[nH]1` [Example 81] came in with an IC50 of 1200 nM. Regarding `Cc1c2ccc(C(=O)Nc3cc4[nH]c(CN5CCC[C@@H]5C)cc4cn3)cc2nn1C` [Example 8], the IC50 turned out to be 245 nM.

On to `C[C@H]1CCCN1Cc1cc2cnc(NC(=O)c3ccc(-n4ccnc4)cn3)cc2[nH]1` [Example 75], for which the IC50 turned out to be 2340 nM. In turn, `C[C@H]1CCCN1Cc1cc2cnc(NC(=O)c3ccc(-n4cnnc4)cc3)cc2[nH]1` [Example 91] returned a half-inhibitory concentration (IC50) of 707 nM. Take `C[C@H]1CCCN1Cc1cc2cnc(NC(=O)c3ncc(-c4cn[nH]c4)cc3F)cc2[nH]1` [Example 74]: the IC50 was found to be 1090 nM. As to `CC(c1ccncc1)c1ccc(C(=O)Nc2cc3[nH]c(CN4CCC[C@@H]4C)cc3cn2)cc1` (stereo partly drawn) [Example 29, N-(2-[[(2S)-2-methylpyrrolidin-1-yl]methyl]-1H-pyrrolo[3,2-c]pyridin-6-yl)-4-[1-(pyridin-4-yl)ethyl]benzamide], the IC50 was 527 nM.

In turn, `COCCn1cc(-c2ccc(C(=O)Nc3cc4[nH]c(CN5CCC[C@@H]5C)cc4cn3)c(F)c2)cn1` [Example 72] registered an IC50 of 364 nM. `C[C@H]1CCCN1Cc1cc2cnc(NC(=O)c3ccc4c(cnn4-c4ccncc4)c3)cc2[nH]1` [Example 37, N-(2-[[(2S)-2-methylpyrrolidin-1-yl]methyl]-1H-pyrrolo[3,2-c]pyridin-6-yl)-1-(pyridin-4-yl) indazole-5-carboxamide] registered an IC50 of 239 nM. The molecule `C[C@H]1CCCN1Cc1cc2cnc(NC(=O)c3ccc4cnccc4c3)cc2[nH]1` [Example 65] displayed an IC50 of 137 nM. `COc1cc(C(=O)Nc2cc3[nH]c(CN4CCC[C@@H]4C)cc3cn2)c(F)cc1-c1ccn[nH]1` [Example 44] returned an IC50 of 760 nM. Turning to `C[C@H]1CCCN1Cc1cc2cnc(NC(=O)c3nc4ccc(O)cc4[nH]3)cc2[nH]1` [Example 63], the IC50 is 1960 nM. In turn, `Cc1nc2ccc(C(=O)Nc3cc4[nH]c(CN5CCC[C@@H]5C)cc4cn3)cc2o1` [Example 4] showed a half-maximal inhibitory concentration (IC50) of 569 nM. In turn, `C[C@H]1CCCN1Cc1cc2cnc(NC(=O)c3ccc4c(c3)n(C)c(=O)n4C)cc2[nH]1` [Example 90] showed a 50% inhibitory concentration (IC50) of 126 nM. Molecule `C[C@H]1CCCN1Cc1cc2cnc(NC(=O)c3ccc4ncccc4c3)cc2[nH]1` [Example 15] returned a half-maximal inhibitory concentration (IC50) of 263 nM. Molecule `C[C@H]1CCCN1Cc1cc2cnc(NC(=O)c3ccc(-c4c[nH]cn4)cn3)cc2[nH]1` [Example 76] returned an IC50 of 1590 nM.

In turn, `C[C@H]1CCCN1Cc1cc2cnc(NC(=O)c3ccc4onc(C5CC5)c4c3)cc2[nH]1` [Example 53, 3-cyclopropyl-N-(2-[[(2S)-2-methylpyrrolidin-1-yl]methyl]-1H-pyrrolo[3,2-c]pyridin-6-yl)-1,2-benzoxazole-5-carboxamide] showed an IC50 of 417 nM. Then `C[C@H]1CCCN1Cc1cc2cnc(NC(=O)c3ccc4cc[nH]c(=O)c4c3)cc2[nH]1` [Example 25], with 395 nM; and `C[C@H]1CCCN1Cc1cc2cnc(NC(=O)c3ccc4nnccc4c3)cc2[nH]1` [Example 39], with 368 nM; and `C[C@H]1CCCN1Cc1cc2cnc(NC(=O)c3ccc4c(=O)[nH]ccc4c3)cc2[nH]1` [Example 61], with 325 nM. On to `C[C@H]1CCCN1Cc1cc2cnc(NC(=O)c3ccc4c(c3)OCC(=O)N4C)cc2[nH]1` [Example 17, 4-methyl-N-(2-[[(2S)-2-methylpyrrolidin-1-yl]methyl]-1H-pyrrolo[3,2-c]pyridin-6-yl)-3-oxo-2H-1,4-benzoxazine-7-carboxamide], for which the half-maximal inhibitory concentration (IC50) turned out to be 441 nM. Next, `C[C@H]1CCCN1Cc1cc2cnc(NC(=O)c3ccc(-c4cn[nH]c4)cn3)cc2[nH]1` [Example 77]: 963 nM. In turn, `C[C@H]1CCCN1Cc1cc2cnc(NC(=O)c3ccc(-n4ccnc4)cc3)cc2[nH]1` [Example 54] yielded a concentration for half-maximal inhibition (IC50) of 212 nM.

The molecule `C[C@@H]1CCN1Cc1cc2cnc(NC(=O)c3ccc4c(cnn4C)c3)cc2[nH]1` [Example 45, 1-methyl-N-(2-[[(2R)-2-methylazetidin-1-yl]methyl]-1H-pyrrolo[3,2-c]pyridin-6-yl)indazole-5-carboxamide] registered a concentration for half-maximal inhibition (IC50) of 2180 nM. As to `C[C@H]1CCCN1Cc1cc2cnc(NC(=O)c3ccc4c(N)n[nH]c4c3)cc2[nH]1` [Example 83], the 50% inhibitory concentration (IC50) was determined as 168 nM. As for `Cc1nn(C2CS(=O)(=O)C2)c2ccc(C(=O)Nc3cc4[nH]c(CN5CCC[C@@H]5C)cc4cn3)cc12` [Example 101], the 50% inhibitory concentration (IC50) is 126 nM. `CC(=O)Nc1nn(C)c2cc(C(=O)Nc3cc4[nH]c(CN5CCC[C@@H]5C)cc4cn3)ccc12` [Example 87, 3-acetamido-1-methyl-N-(2-[[(2S)-2-methylpyrrolidin-1-yl]methyl]-1H-pyrrolo[3,2-c]pyridin-6-yl)indazole-6-carboxamide] gave an IC50 of 330 nM. In turn, `COCCn1cc(-c2ccc(C(=O)Nc3cc4[nH]c(CN5CCC[C@@H]5C)cc4cn3)nc2)cn1` [Example 71] had an IC50 of 1040 nM.

As to `CC1C(=O)Nc2cc(C(=O)Nc3cc4[nH]c(CN5CCC[C@@H]5C)cc4cn3)ccc21` (stereo partly drawn) [Example 69, 3-methyl-N-(2-[[(2S)-2-methylpyrrolidin-1-yl]methyl]-1H-pyrrolo[3,2-c]pyridin-6-yl)-2-oxo-1,3-dihydroindole-6-carboxamide], the IC50 amounted to 412 nM.
